Measurements as given in patent US8906925B2, “Pyrido[4,3-B]indoles containing rigid moieties” (Medivation Technologies, Inc., priority 2008, dated 2014).
Where “and” joins values, the source holds several entries; their conditions need not be identical. Equal entries are not always repeated.

What was measured:
[1] = target: human recombinant serotonin 5-HT2A receptor (Homo sapiens, UniProt P28223); assay: 5-HT2A agonist/antagonist functional assay (cytosolic Ca2+ fluorescence, HEK-293 cells); type: cell-based
Source text: To determine for agonist or antagonist activity of compounds of the invention in functional assays, human recombinant serotonin 5-HT2A receptor expressed in human embryonic kidney (HEK-293) cells (Jerman J C, Brough S J, Gager T, Wood M, Coldwell M C, Smart D and Middlemiss D N, Eur J Pharmacol, 414: 23-30, 2001) or human recombinant serotonin 5-HT7 receptor expressed in CHO cells (Adham, et al. J. Pharmacol. Exp. Ther. 287:508-514, 1998) was used. Cells were suspended in DMEM buffer, and distributed in microplates. For the 5-HT2A assay, a cytoplasmic calcium fluorescent indicator which varies proportionally to the free cytosolic Ca^2+ ion concentration was mixed with probenicid in HBSS buffer complemented with 20 mM Hepes (pH 7.4), added into each well and equilibrated with the cells for 30 min. at 37° C. followed by 30 min. at 22° C. For the 5-HT7 assay, the reaction product was cAMP, detected by HTRF.
To measure 5-HT2A agonist effects, compounds of the invention, reference agonist or HBSS buffer (basal control) was added to the cells and changes in fluorescence intensity were measured using a microplate reader.
The standard reference antagonist was ketanserin (5-HT2A) or mesulergine (5-HT7), which was tested in each experiment at several concentrations to generate a concentration-response curve from which its IC50 value was calculated. […]

[2] = tested on: rat mixed cortical cultures; assay: Neurite outgrowth in rat mixed cortical cultures; type: cell-based; details: 50 nM, 48 h, vs vehicle
Description: Cortical mixed cultures are prepared from E18 Wistar rat embryos. The cortices are dissected out and the tissue was cut to small pieces. The cells are separated by 15-min. incubation with DNase and papain. The cells are collected by centrifugation (1500 rpm, 5 min.). The tissue is triturated with a pipette and the cells are plated using the micro-islet protocol (20 000 cells in […] medium) on poly-L-lysine coated 48 wells, in MEM supplemented with 2 mM glutamine, […] gentamicin, 10% heat-inactivated fetal bovine serum (FBS-HI) and 10% heat-inactivated horse serum (HS-HI). After the cells had attached to the well, 250 μl medium is added to the wells. […] BDNF levels in the conditioned media are determined with a BDNF ELISA using the manufacturers (Promega, BDNF Emax® ImmunoAssay System, catalog number: G7610) instructions.
The cultures are fixed with 4% formaldehyde in 0.01 M PBS for 30 min. and washed once with PBS. […] The immunopositive cells are visualized by a fluorescence microscope equipped with appropriate filter set, and documented by a high resolution image capturing. The number of cells per field (4 field per well) are counted, and the neurite outgrowth was quantified using Image Pro Plus software. […]
Compounds of the invention were evaluated on their effect on neurite outgrowth in rat mixed neuronal cultures. […]

human recombinant serotonin 5-HT2A receptor, sequence (P28223 whole entry): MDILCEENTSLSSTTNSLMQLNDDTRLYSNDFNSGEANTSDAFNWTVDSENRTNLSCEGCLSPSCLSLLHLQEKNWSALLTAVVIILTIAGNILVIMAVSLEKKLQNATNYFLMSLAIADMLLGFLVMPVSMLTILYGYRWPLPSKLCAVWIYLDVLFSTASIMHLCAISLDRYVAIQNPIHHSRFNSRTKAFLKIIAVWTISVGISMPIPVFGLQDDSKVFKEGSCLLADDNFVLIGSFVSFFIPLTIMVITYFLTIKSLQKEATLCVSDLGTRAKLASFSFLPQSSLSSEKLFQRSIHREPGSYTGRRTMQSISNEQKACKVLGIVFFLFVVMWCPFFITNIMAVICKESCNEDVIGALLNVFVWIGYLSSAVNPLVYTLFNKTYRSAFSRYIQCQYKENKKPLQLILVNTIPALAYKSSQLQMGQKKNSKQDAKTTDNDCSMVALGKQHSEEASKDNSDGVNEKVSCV

EC50 [1]: 3100 nM
IC50 ([1]; vs 3 nM 5-HT): 970 nM and > 1000 nM
Structure (SMILES): C/C(=C\n1c2c(c3cc(Cl)ccc31)CN(C)CC2)c1ccc(F)cc1 [Compound 83, (E)-8-chloro-5-(2-(4-fluorophenyl)prop-1-enyl)-2,3,4,5-tetrahydro-2-methyl-1H-pyrido[4,3-b]indole]
Mean Process+Branch Number (number of branched processes) [2]: significantly increased
